# According to ChEMBL document CHEMBL3885861, “Open TG-GATES”:
# Species: Rattus norvegicus
# Assay: Open TG-GATES - Regimen: Single
# Format: toxicity, organism-based, Sprague-Dawley
# Set-up: regimen Single, gender Male, age 6 weeks
# Conditions: in vivo, po, 0 mg/kg, route gavage, dose level Control; for APTT / Bas / Eos / Fbg / Hb / Ht / Lym / MCH / MCHC / MCV / Mono / Neu / PT / Plat / RBC / Ret / WBC: tissue Blood; for KIDNEY_L / KIDNEY_R / KIDNEY_TOTAL: tissue Kidney; for LIVER: tissue Liver; for A/G / ALP / ALT / AST / BUN / CRE / Ca / Cl / DBIL / GLC / IP / K / LDH / Na / PL / RALB / TBIL / TC / TG / TP / gamma-GTP: tissue Plasma
smiles,measurement,setting,value
CCCc1cc(=O)[nH]c(=S)[nH]1 [PROPYLTHIOURACIL],TERMINAL_BW,3 h,182.7 g
same,APTT,3 h,15.8 s
same,Bas,3 h,0%
same,Eos,3 h,1%
same,Fbg,3 h,217.4 mg/dL
same,Hb,3 h,13.2 g/dL
same,Ht,3 h,39.8%
same,Lym,3 h,78.6%
same,MCH,3 h,22.3 pg
same,MCHC,3 h,33.3%
same,MCV,3 h,67.1 fL
same,Mono,3 h,6.2%
same,Neu,3 h,14.6%
same,PT,3 h,12.6 s
same,Plat,3 h,108.3 x10_4/uL
same,RBC,3 h,593.2 x10_4/ul
same,Ret,3 h,10.7%
same,WBC,3 h,86.3 x10_2/uL
same,KIDNEY_L,3 h,0.8 g
same,KIDNEY_R,3 h,0.8 g
same,KIDNEY_TOTAL,3 h,1.7 g
same,LIVER,3 h,8.7 g
same,A/G,3 h,2
same,ALP,3 h,886.8 IU/L
same,ALT,3 h,39.6 IU/L
same,AST,3 h,69.8 IU/L
same,BUN,3 h,13.2 mg/dL
same,CRE,3 h,0.4 mg/dL
same,Ca,3 h,11 mg/dL
same,Cl,3 h,105 meq/L
same,DBIL,3 h,0.024 mg/dL
same,GLC,3 h,192.6 mg/dL
same,IP,3 h,9.9 mg/dL
same,K,3 h,5 meq/L
same,LDH,3 h,87.6 IU/L
same,Na,3 h,138.6 meq/L
same,PL,3 h,140.2 mg/dL
same,RALB,3 h,3.6 g/dL
same,TBIL,3 h,0.3 mg/dL
same,TC,3 h,82.4 mg/dL
same,TG,3 h,37.2 mg/dL
same,TP,3 h,5.5 g/dL
same,gamma-GTP,3 h,0.8 IU/L
same,TERMINAL_BW,6 h,178.3 g
same,APTT,6 h,16.1 s
same,Bas,6 h,0%
same,Eos,6 h,0%
same,Fbg,6 h,206.8 mg/dL
same,Hb,6 h,13 g/dL
same,Ht,6 h,39.3%
same,Lym,6 h,80%
same,MCH,6 h,21.5 pg
same,MCHC,6 h,33.1%
same,MCV,6 h,64.8 fL
same,Mono,6 h,6.4%
same,Neu,6 h,13.6%
same,PT,6 h,12.6 s
same,Plat,6 h,107.1 x10_4/uL
same,RBC,6 h,606.2 x10_4/ul
same,Ret,6 h,10.4%
same,WBC,6 h,111.4 x10_2/uL
same,KIDNEY_L,6 h,0.8 g
same,KIDNEY_R,6 h,0.8 g
same,KIDNEY_TOTAL,6 h,1.6 g
same,LIVER,6 h,7.9 g
same,A/G,6 h,2.2
same,ALP,6 h,853.4 IU/L
same,ALT,6 h,34.2 IU/L
same,AST,6 h,66.8 IU/L
same,BUN,6 h,11.8 mg/dL
same,CRE,6 h,0.5 mg/dL
same,Ca,6 h,10.7 mg/dL
same,Cl,6 h,105.2 meq/L
same,DBIL,6 h,0.046 mg/dL
same,GLC,6 h,182 mg/dL
same,IP,6 h,10 mg/dL
same,K,6 h,5 meq/L
same,LDH,6 h,82.2 IU/L
same,Na,6 h,137.6 meq/L
same,PL,6 h,136.6 mg/dL
same,RALB,6 h,3.6 g/dL
same,TBIL,6 h,0.3 mg/dL
same,TC,6 h,80 mg/dL
same,TG,6 h,33.4 mg/dL
same,TP,6 h,5.4 g/dL
same,gamma-GTP,6 h,1.8 IU/L
same,TERMINAL_BW,9 h,175.9 g
same,APTT,9 h,16 s
same,Bas,9 h,0%
same,Eos,9 h,1.2%
same,Fbg,9 h,215.4 mg/dL
same,Hb,9 h,13.1 g/dL
same,Ht,9 h,39.7%
same,Lym,9 h,77.8%
same,MCH,9 h,22 pg
same,MCHC,9 h,33.1%
same,MCV,9 h,66.2 fL
same,Mono,9 h,6.2%
same,Neu,9 h,15.2%
same,PT,9 h,12.5 s
same,Plat,9 h,107.3 x10_4/uL
same,RBC,9 h,599.2 x10_4/ul
same,Ret,9 h,10.2%
same,WBC,9 h,95.1 x10_2/uL
same,KIDNEY_L,9 h,0.8 g
same,KIDNEY_R,9 h,0.9 g
same,KIDNEY_TOTAL,9 h,1.7 g
same,LIVER,9 h,7.6 g
same,A/G,9 h,2
same,ALP,9 h,741.2 IU/L
same,ALT,9 h,33.6 IU/L
same,AST,9 h,61.8 IU/L
same,BUN,9 h,13.8 mg/dL
same,CRE,9 h,0.5 mg/dL
same,Ca,9 h,10.6 mg/dL
same,Cl,9 h,107.4 meq/L
same,DBIL,9 h,0.006 mg/dL
same,GLC,9 h,195.4 mg/dL
same,IP,9 h,11.1 mg/dL
same,K,9 h,5.2 meq/L
same,LDH,9 h,102.4 IU/L
same,Na,9 h,139.8 meq/L
same,PL,9 h,132.2 mg/dL
same,RALB,9 h,3.6 g/dL
same,TBIL,9 h,0.4 mg/dL
same,TC,9 h,76 mg/dL
same,TG,9 h,35.6 mg/dL
same,TP,9 h,5.5 g/dL
same,gamma-GTP,9 h,2.2 IU/L
same,TERMINAL_BW,24 h,192.6 g
same,APTT,24 h,16.1 s
same,Bas,24 h,0%
same,Eos,24 h,1%
same,Fbg,24 h,211.2 mg/dL
same,Hb,24 h,13.2 g/dL
same,Ht,24 h,40%
same,Lym,24 h,76.6%
same,MCH,24 h,21.6 pg
same,MCHC,24 h,33%
same,MCV,24 h,65.5 fL
same,Mono,24 h,9%
same,Neu,24 h,13.6%
same,PT,24 h,12.4 s
same,Plat,24 h,104.6 x10_4/uL
same,RBC,24 h,611.6 x10_4/ul
same,Ret,24 h,9.6%
same,WBC,24 h,123.5 x10_2/uL
same,KIDNEY_L,24 h,0.8 g
same,KIDNEY_R,24 h,0.9 g
same,KIDNEY_TOTAL,24 h,1.7 g
same,LIVER,24 h,9.1 g
same,A/G,24 h,2
same,ALP,24 h,974.2 IU/L
same,ALT,24 h,46.2 IU/L
same,AST,24 h,70.2 IU/L
same,BUN,24 h,19.2 mg/dL
same,CRE,24 h,0.6 mg/dL
same,Ca,24 h,10.9 mg/dL
same,Cl,24 h,105.2 meq/L
same,DBIL,24 h,0.016 mg/dL
same,GLC,24 h,196.6 mg/dL
same,IP,24 h,7.9 mg/dL
same,K,24 h,5 meq/L
same,LDH,24 h,86.6 IU/L
same,Na,24 h,138.6 meq/L
same,PL,24 h,152.8 mg/dL
same,RALB,24 h,3.7 g/dL
same,TBIL,24 h,0.3 mg/dL
same,TC,24 h,83.2 mg/dL
same,TG,24 h,96.2 mg/dL
same,TP,24 h,5.6 g/dL
same,gamma-GTP,24 h,2.4 IU/L
